One test deals with NUGC. Put plainly: Cytotoxicity against human NUGC cells at 50 uM. The format is functional.
For the molecule `C=C1CC[C@@]2(OC1)O[C@H]1C[C@H]3[C@@H]4CC[C@]5(O)[C@@H](O)[C@@H](O)[C@@H](O)[C@@H](O)[C@]5(C)[C@H]4CC[C@]3(C)[C@H]1[C@@H]2C`, the inhibition (commonly the drop in the measured response relative to a control, in per cent) at 50 µM was 100%.

In turn, `C=CCc1ccc(O)c(O)c1` [HYDROXYCHAVICOL] registered an inhibition at 50 µM of 96%. Same read-out and setting: next, `C=C1CC[C@@]2(OC1)O[C@H]1C[C@H]3[C@@H]4CC[C@]5(O)[C@@H](O)[C@@H](O)C[C@@H](O)[C@]5(C)[C@H]4CC[C@]3(C)[C@H]1[C@@H]2C` [RANMOGENIN A]: 80%; `C=C1CC[C@@]2(OC1)O[C@H]1C[C@H]3[C@@H]4CC[C@]5(O)C[C@@H](OC(C)=O)[C@@H](OC(C)=O)[C@@H](OC(C)=O)[C@]5(C)[C@H]4CC[C@]3(C)[C@H]1[C@@H]2C` [TUPICHIGENIN AA]: 50%. Same read-out and setting: the value for `C=C1CC[C@@]2(OC1)O[C@H]1C[C@H]3[C@@H]4CC[C@]5(O)C[C@@H](O)[C@@H](OC(C)=O)[C@@H](OC(C)=O)[C@]5(C)[C@H]4CC[C@]3(C)[C@H]1[C@@H]2C` [TUPICHIGENIN AC] was 40%; that for `C=C1CC[C@@]2(OC1)O[C@H]1C[C@H]3[C@@H]4CC[C@]5(O)C[C@@H](O)[C@@H](O)[C@@H](O)[C@]5(C)[C@H]4CC[C@]3(C)[C@H]1[C@@H]2C` [TUPICHIGENIN A] was 42%. Still for that read-out and setting: the value for `COc1ccc2c(c1C)O[C@H](c1ccc(O)cc1)[C@H](O)C2` [TUPICHINOL A] was 30%; that for `CC(=O)C1=CC[C@H]2[C@@H]3CC=C4C[C@H](O)C[C@@H](O)[C@]4(C)[C@H]3CC[C@]12C` [TUPIPREGNENOLONE] was 25%.

Tested on in the next test: not listed separately
Briefly: Cytotoxicity against human HONE1 cells at 50 uM. The format is functional.
Molecule `C=C1CC[C@@]2(OC1)O[C@H]1C[C@H]3[C@@H]4CC[C@]5(O)[C@@H](O)[C@@H](O)[C@@H](O)[C@@H](O)[C@]5(C)[C@H]4CC[C@]3(C)[C@H]1[C@@H]2C` came in with an inhibition at 50 µM of 100%. Still for that read-out and setting: next, `C=C1CC[C@@]2(OC1)O[C@H]1C[C@H]3[C@@H]4CC=C5C[C@H](O)C[C@@H](O)[C@]5(C)[C@H]4CC[C@]3(C)[C@H]1[C@@H]2C`: 45%. The same measure, in the same setting: next, `Oc1ccc([C@H]2CCc3ccc(O)cc3O2)cc1` [TUPICHINOL C]: 50%.
